# Experimental data reported in paper PMC9545004, “Transglutaminase 2 affinity and enzyme‐substrate intermediate stability as determining factors for T‐cell responses to gluten peptides in celiac disease” (European Journal of Immunology, 2022).
# Like-named read-outs stand apart in the source and are kept apart here.
# Legend:
# [1] = system: TCR-transfectant cells specific for DQ2.5-glia-ω2; test: Inhibition by primary amines of activation of DQ2.5-glia-ω2-specific T cells by TG2-specific B cells, IL-2 ELISA; assay type: cell-based; conditions: for IC50: 5 µM N-ω-gliadin 34-mer, TG2, CaCl2, amine 0-1000 µM, IL-2 ELISA
# From the text: (§1) Murine A20 B lymphoma cells engineered to express either the celiac patient‐derived TG2‐specific BCR 679‐14‐E06 or the non‐TG2‐specific BCR 693‐2‐F02 as human IgD are previously described. For B‐cell/T‐cell collaboration assays, we used A20 BCR transfectants also transduced to express HLA‐DQ2.5 [27]. Murine BW58α^–β^– cells were retrovirally transduced to express human CD4 as well as the celiac patient‐derived gluten‐specific TCR from a DQ2.5‐glia‐γ1‐reactive T‐cell clone (TCC 4.32) as previously described. The generation of TCR transfectants expressing DQ2.5‐glia‐α2‐reactive TCR (TCC 364.14) and DQ2.5‐glia‐ω2‐reactive TCR (clone 737.30) have been described previously.
# The B‐cell/T‐cell collaboration assays were set up as previously described. To compare the uptake and presentation of different gluten peptides to T cells, A20 cells (5 mill/mL) expressing the TG2‐specific BCR (679‐14‐E06) and HLA DQ2.5 were incubated with recombinant TG2 (final 3 µg/mL) and varying amounts of N‐α‐gliadin 20‐mer, N‐ω‐gliadin 19‐mer, or N‐γ‐gliadin 21‐mer in RPMI supplemented with 2 mM CaCl2. After a 30 min incubation at 37°C the cells were washed with 1% FCS/RPMI and resuspended in 5% FCS/RPMI to give a final 1.5 million cells/mL (150 000/well) followed by 2 h incubation at 37°C. Next, TCR‐transfectant cells specific for either DQ2.5‐glia‐α2, DQ2.5‐glia‐ω2, or DQ2.5‐glia‐γ1 were added (25 000/well), followed by overnight incubation at 37°C. The next day, IL‐2 concentration was measured in the culture supernatant by ELISA as previously described. The responsiveness of different TCR transfectants was assessed in the same way, but without the 30 min incubation with TG2, and using the synthetic deamidated peptides (D‐α‐gliadin 20‐mer, D‐ω‐gliadin 17‐mer, and D‐γ‐gliadin 21‐mer). To assess how TG2 secondary substrate affects peptide uptake and presentation to T cells, TG2‐specific A20 cells expressing DQ2.5 were incubated with TG2, CaCl2, 5 µM N‐ω‐gliadin 34‐mer, or 5 µM N‐α‐gliadin 33‐mer in the presence of primary amines at increasing concentrations (0‐1000 µM), before the addition of TCR‐transfectant cells specific for the DQ2.5‐glia‐α2 or DQ2.5‐glia‐ω2 epitopes. The dose‐response curve fitting to find IC50 was done using the “[Inhibitor] vs. response” equation in GraphPad Prism 8.3.0. To examine whether primary amines directly affect the B cells, TG2‐specific A20 cell expressing DQ2.5 were incubated with primary amines for 30 min and washed, before addition of 2 µM D‐ω‐gliadin 34‐mer, followed by incubation with DQ2.5‐glia‐ω2 TCR transfectants.
# [2] = system: TG2:gluten complexes uptake by TG2-specific B cells (A20, BCR 679-14-E06); test: Inhibition by primary amines of TG2:gluten complex uptake by TG2-specific B cells, flow cytometry; assay type: cell-based, Murine A20 B lymphoma; recombinant human TG2; conditions: for IC50: B-cell
# From the text: as §1
# B‐cell uptake of gluten peptides was measured essentially as previously described. The following 9‐mer peptides were compared: FITC‐α2, FITC‐ω2, FITC‐γ1, and FITC‐γ3. In brief, A20 cells (300 000/well) expressing TG2‐specific (679‐14‐E06) or non‐TG2 specific BCR (693‐2‐F02) were incubated with recombinant TG2 (final 3 µg/mL), 5 µM FITC peptide, and 2 mM CaCl2 in RPMI at a final volume of 50 µL. Following incubation at 37°C, the TG2 enzymatic activity was quenched by the addition of 100 µL 2 mM EDTA/RPMI at specific timepoints. Cells were washed, fixed in 2% methanol‐free formaldehyde (Invitrogen), resuspended in 2% fetal calf serum (FCS)/PBS, and analyzed by flow cytometry (Attune NxT Flow Cytometer, Thermo Scientific). For each peptide, a delta MFI was calculated by subtracting MFI from non‐TG2 specific A20 cell (unspecific binding) from MFI of TG2‐specific A20 cells. Delta MFI was normalized for each experiment by dividing by the highest delta value per experiment. To assess the contribution and uptake of isopeptide‐linked TG2:gluten complexes, TG2 (3 µg/mL) and FITC‐labelled peptides (5 µM) were preincubated in RPMI with 2 mM CaCl2 at 37°C for 30 min before addition of A20 cells followed by 30 min incubation at 37°C. To examine the effect of TG2 secondary substrates on peptide uptake, the primary amines spermine (Sigma–Aldrich) and biotinylated cadaverine (5‐biotinamido‐pentylamine; 5‐BP, Pierce) were added to the reaction mixture (0.1–1000 µM final concentration), followed by 10 min incubation at 37°C and flow cytometry analysis. The dose‐response curve fitting to find IC50 was done using the “[Inhibitor] vs. response” equation in GraphPad Prism 8.3.0. Of note, the presence of Lysine HCl in RPMI medium represents an experimental constant in our assays that is not accounted for when calculating the competitive effect of amine.
# [3] = DQ2.5-glia-ω2, replicate Figure S5A
# [4] = DQ2.5-glia-ω2, replicate Figure S5B
# [5] = logIC50, DQ2.5-glia-ω2, Figure 5
# [6] = logIC50, DQ2.5-glia-ω2, replicate Figure S5A
# [7] = logIC50, DQ2.5-glia-ω2, replicate Figure S5B
# [8] = logIC50, inhibition of FITC-α2 uptake, Figure 4
# [9] = logIC50, inhibition of FITC-α2 uptake, mean
# [10] = logIC50, inhibition of FITC-α2 uptake, replicate Figure S4 A
# [11] = logIC50, inhibition of FITC-α2 uptake, replicate Figure S4 B
# [12] = logIC50, inhibition of FITC-γ1 uptake, Figure 4
# [13] = logIC50, inhibition of FITC-γ1 uptake, mean
# [14] = logIC50, inhibition of FITC-γ1 uptake, replicate Figure S4 C
# [15] = logIC50, inhibition of FITC-ω2 uptake, Figure 4
# [16] = logIC50, inhibition of FITC-ω2 uptake, mean
# [17] = logIC50, inhibition of FITC-ω2 uptake, replicate Figure S4 A
smiles,measurement,setting,value
NCCCNCCCCNCCCN [spermine],IC50,"[1]; DQ2.5-glia-ω2, Figure 5",55.1 µM
same,IC50,"[1]; DQ2.5-glia-ω2, mean",27.5 µM
same,IC50,[1]; [3],18.4 µM
same,IC50,[1]; [4],9.13 µM
same,logIC50,"[1]; DQ2.5-glia-ω2, Figure 5",1.74
same,logIC50,"[1]; DQ2.5-glia-ω2, mean",1.32
same,logIC50,[1]; [3],1.26
same,logIC50,[1]; [4],0.960
same,log 95% CI lower limit,[1]; [5],1.50
same,log 95% CI upper limit,[1]; [5],1.99
same,log 95% CI lower limit,"[1]; logIC50, DQ2.5-glia-ω2, mean",1.04
same,log 95% CI upper limit,"[1]; logIC50, DQ2.5-glia-ω2, mean",1.58
same,log 95% CI lower limit,[1]; [6],1.03
same,log 95% CI upper limit,[1]; [6],1.50
same,log 95% CI lower limit,[1]; [7],0.610
same,log 95% CI upper limit,[1]; [7],1.26
same,IC50,"[2]; 10 min, inhibition of FITC-α2 (5 µM) uptake, TG2 3 µg/mL, 2 mM CaCl2, RPMI, 37°C 10 min, Figure 4, read-out: IC50",29.3 µM
same,IC50,"[2]; 10 min, inhibition of FITC-α2 (5 µM) uptake, TG2 3 µg/mL, 2 mM CaCl2, RPMI, 37°C 10 min, mean, read-out: IC50",66.1 µM
same,IC50,"[2]; 10 min, inhibition of FITC-α2 (5 µM) uptake, TG2 3 µg/mL, 2 mM CaCl2, RPMI, 37°C 10 min, replicate Figure S4 A, read-out: IC50",47.6 µM
same,IC50,"[2]; 10 min, inhibition of FITC-α2 (5 µM) uptake, TG2 3 µg/mL, 2 mM CaCl2, RPMI, 37°C 10 min, replicate Figure S4 B, read-out: IC50",121 µM
same,IC50,"[2]; 10 min, inhibition of FITC-γ1 (5 µM) uptake, TG2 3 µg/mL, 2 mM CaCl2, RPMI, 37°C 10 min, Figure 4, read-out: IC50",45.3 µM
same,IC50,"[2]; 10 min, inhibition of FITC-γ1 (5 µM) uptake, TG2 3 µg/mL, 2 mM CaCl2, RPMI, 37°C 10 min, mean, read-out: IC50",31.9 µM
same,IC50,"[2]; 10 min, inhibition of FITC-γ1 (5 µM) uptake, TG2 3 µg/mL, 2 mM CaCl2, RPMI, 37°C 10 min, replicate Figure S4 C, read-out: IC50",18.7 µM
same,IC50,"[2]; 10 min, inhibition of FITC-ω2 (5 µM) uptake, TG2 3 µg/mL, 2 mM CaCl2, RPMI, 37°C 10 min, Figure 4, read-out: IC50",14 µM
same,IC50,"[2]; 10 min, inhibition of FITC-ω2 (5 µM) uptake, TG2 3 µg/mL, 2 mM CaCl2, RPMI, 37°C 10 min, mean (spermine: Figure S4 B not included), read-out: IC50",26.1 µM
same,IC50,"[2]; 10 min, inhibition of FITC-ω2 (5 µM) uptake, TG2 3 µg/mL, 2 mM CaCl2, RPMI, 37°C 10 min, replicate Figure S4 A, read-out: IC50",38.2 µM
same,IC50,"[2]; FITC 9-mer native gluten peptides, average IC50 values, Table S1, read-out: IC50, inhibition of FITC-9-mer peptide uptake (average values)",26 to 72 µM
same,"inhibition of FITC-9-mer uptake, in words","[2]; TG2 3 µg/mL, FITC peptide 5 µM, 2 mM CaCl2, 37°C 10 min, Figure 4, Figure S4",effectively inhibited uptake
same,logIC50,"[2]; inhibition of FITC-α2 uptake, Figure 4",1.47
same,logIC50,"[2]; inhibition of FITC-α2 uptake, mean",1.74
same,logIC50,"[2]; inhibition of FITC-α2 uptake, replicate Figure S4 A",1.68
same,logIC50,"[2]; inhibition of FITC-α2 uptake, replicate Figure S4 B",2.08
same,logIC50,"[2]; inhibition of FITC-γ1 uptake, Figure 4",1.66
same,logIC50,"[2]; inhibition of FITC-γ1 uptake, mean",1.46
same,logIC50,"[2]; inhibition of FITC-γ1 uptake, replicate Figure S4 C",1.27
same,logIC50,"[2]; inhibition of FITC-ω2 uptake, Figure 4",1.15
same,logIC50,"[2]; inhibition of FITC-ω2 uptake, mean",1.36
same,logIC50,"[2]; inhibition of FITC-ω2 uptake, replicate Figure S4 A",1.58
same,logIC50,"[2]; inhibition of FITC-ω2 uptake, replicate Figure S4 B",16.4
same,log 95% CI lower limit,[2]; [8],0.911
same,log 95% CI upper limit,[2]; [8],2.19
same,log 95% CI lower limit,[2]; [9],1.31
same,log 95% CI upper limit,[2]; [9],2.23
same,log 95% CI lower limit,[2]; [10],1.49
same,log 95% CI upper limit,[2]; [10],1.864
same,log 95% CI lower limit,[2]; [11],1.53
same,log 95% CI upper limit,[2]; [11],2.63
same,log 95% CI lower limit,[2]; [12],1.20
same,log 95% CI upper limit,[2]; [12],2.08
same,log 95% CI lower limit,[2]; [13],1.02
same,log 95% CI upper limit,[2]; [13],2.0
same,log 95% CI lower limit,[2]; [14],0.84
same,log 95% CI upper limit,[2]; [14],1.92
same,log 95% CI lower limit,[2]; [15],0.93
same,log 95% CI upper limit,[2]; [15],1.39
same,log 95% CI lower limit,[2]; [16],1.16
same,log 95% CI upper limit,[2]; [16],1.59
same,log 95% CI lower limit,[2]; [17],1.38
same,log 95% CI upper limit,[2]; [17],1.79
